Reference: patent US12433876B2, “Septin inhibitors for treatment of cancers” (UNIVERSITY OF ROCHESTER, priority 2019, dated 2025)

How the values were obtained:
JIMT-1 cells = assay: Live/Dead dye flow cytometry, JIMT-1; assay type: cell-based; details: JIMT-1, 3 μM, 48 hours, in vitro
Description: Cell Lines, Cell Culture, and Reagents. PANC-1, BXPC-3 and CAPAN-1, SKOV-3, MCF7, MDA-MD-231 cells were obtained from ATCC and maintained in DMEM, RPMI-1640 and IMDM supplemented with 10% fetal calf serum penicillin (100 units/mL), and streptomycin (100 μg/mL) at 37° C. with 5% CO2 in a humidified incubator. JIMT-1 cells were purchased from AddexBio Inc, USA (catalog number: C0006005) and maintained in 10% FBS and antibiotic supplemented DMEM. […] The reaction was monitored using thin-layer chromatography plates with DCM-MeOH or pure ethyl acetate as eluent. Spots were monitored in a UV chamber. […] ICM scores for each compound and their poses were calculated and compared with FCF. […] Cell viability of PANC-1, BXPC-3 and CAPAN-1 pancreatic cancer cells treated with UR214-9 was measured using the Cell Titre96R Aqueous One Solution Cell Proliferation Assay (Promega Corp., catalog number: G3580) following the procedure published earlier. […] The cells were analyzed by a 305 flow cytometer and relative live and dead cell population was calculated by inputting equal number of cells in both vehicle and control group.

septin-7 = target: T1, septin-7 (Homo sapiens, UniProt Q16181); assay: Confocal analysis of septin-7; assay type: cell-based; details: PANC-1 cells
T1 construct: investigate the response of other septin family members in PANC-1 cells upon treatment with UR214-9; endogenous in cells; host or cells: PANC-1, JIMT-1, SKOV-3 (confocal); PANC-1 (immunoblot)
T1 sequence (Q16181 whole entry): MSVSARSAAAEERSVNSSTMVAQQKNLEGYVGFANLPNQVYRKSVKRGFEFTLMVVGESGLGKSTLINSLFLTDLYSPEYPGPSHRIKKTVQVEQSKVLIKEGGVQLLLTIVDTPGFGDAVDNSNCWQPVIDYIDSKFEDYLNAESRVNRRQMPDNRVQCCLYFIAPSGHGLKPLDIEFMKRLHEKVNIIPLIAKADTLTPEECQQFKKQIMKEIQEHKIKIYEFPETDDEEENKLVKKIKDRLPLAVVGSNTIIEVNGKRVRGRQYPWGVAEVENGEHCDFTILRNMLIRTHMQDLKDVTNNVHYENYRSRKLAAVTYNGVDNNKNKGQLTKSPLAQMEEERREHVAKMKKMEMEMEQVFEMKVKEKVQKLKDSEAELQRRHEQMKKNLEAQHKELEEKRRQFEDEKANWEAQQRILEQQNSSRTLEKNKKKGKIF

- septin-7 (confocal) (septin-7): reduced expression
Structure (SMILES): O=C(Nc1cc(Cl)nc(Cl)c1)Nc1cccc(SC(F)(F)F)c1F [UR214-9]
- cell death (JIMT-1 cells): increased cell death
